The values that follow are results of earlier work, collected in patent US11021501B2, “Creatine phosphate analog prodrugs, compositions and methods of use thereof” (Farmington Pharma Development, priority 2015, dated 2021).

Read-outs that look alike come from different tables or passages of the source. Bounds are passed on as bounds.

The test system of data set [1] is creatine phosphate levels.
For data set [2] the following is noted: animals fed a diet containing up to 1%.

Regarding `CN(CC(=O)O)C(=N)N` [creatine], the “overall increase of creatine phosphate levels” value in data set [1] (creatine supplementation over weeks) is on record as under 50%. Besides, the “duration of increase in tissue creatine phosphate levels” value in data set [1] (following oral creatine supplementation) is reported as over 14 days. Moreover, in data set [1] (healthy volunteers, oral creatine administration), the “increase of cerebral creatine phosphate” value is given as “about 10%”. Regarding `CN(CC(=O)O)C(=N)N.O` [creatine monohydrate], for the setting “athletes and body builders, 2-3 gm/day”, the adverse side effects entry is “without adverse side effects”. `NC1=NCCN1CC(=O)O` [cyclocreatine]: the adverse effects result in data set [2] was “do not exhibit adverse effects”. As for `CN(CC(=O)O)C(=N)NP(=O)(O)O` [Creatine phosphate, creatine phosphate], the adverse side effects entry (patients with cardiac diseases, intravenous injection up to 8 gm/day) was “without adverse side effects”.
